From patent US11116784B2, “Niacinamide (NAM) in ischemic tissue injury” (Beth Israel Deaconess Medical Center, Inc., priority 2016, dated 2021) come the findings set out here.

Entries after “also recorded” stand apart in the source; their conditions may differ.

In data set [1] the test system is renal tubular cells (IMCD3). The data set can be described thus: PGE2 in conditioned media of renal tubular cells. Format: cell-based, mouse.
Procedure: Mouse intermedullary collecting duct (IMCD3) cells were obtained from ATCC. […] Cells were transfected with siRNA targeting mouse PGC1, HCAR2 or a negative control siRNA (Qiagen) for 24 h. Niacin, mepenzolate bromide, β-hydroxybutyrate, the NAMPT inhibitor FK866 ([…] et al. Cancer research 2003; 63, 7436-7442), and niacinamide were diluted to the indicated concentrations in serum-free cell culture medium. Prostaglandin E2 (PGE2) was measured in the conditioned media 24-72 hours after treatment.
Data set [2] has as its system iNephPGC1α mice. The data set can be described thus: Renal IRI in iNephPGC1α mice with inhibition of β-OHB signaling or prostaglandin synthesis. Format: in vivo, mouse. The settings on record: 10 mg/kg IP one hour prior to IRI. The protocol: (§1) Renal ischemia-reperfusion injury (IRI) was performed on 8-12 week-old males through two small paramedial dorsal incisions by applying a microvascular clamp to each renal pedicle for 20 minutes. Mice were anesthetized with isoflurane for the duration of surgery and warmed to 37° C. using a servo-controlled heating pad. Incisions were closed in two layers and mice were revived with 1 ml warm saline injected intraperitoneally.
(§2) All chemicals were purchased from Sigma-Aldrich unless otherwise noted. Niacinamide was given by intraperitoneal injection of 400 mg/kg/day×4 days in saline, with the final dose an hour prior to IRI surgery. In rescue experiments, the same dose was administered once 18 hours after reperfusion. Indomethacin was given by intraperitoneal injection of 10 mg/kg in 0.1 M sodium carbonate/saline an hour prior to IRI. […]
(§3) All measurements were performed in a blinded fashion by an independent facility. Creatinine was analyzed by LC/MS-MS at the University of Alabama Birmingham O'Brien Core Center for Acute Kidney Injury Research (NIH P30-DK079337). […]

For data set [3], the system named is PGC1α^−/− mice. The data set can be described thus: Renal ischemia-reperfusion injury (IRI) in PGC1α−/− mice with Nam pretreatment. Format: in vivo, mouse. On the procedure:
as §1, §2, §3
For metabolomics measurements, snap frozen kidneys were cut to equal weights (20 mg/specimen) and mechanically homogenized into 4 volumes of ice-cold water. […] In brief, amino acids, amines, acylcarnitines, nucleotides, and other cationic polar metabolites were measured in 10 μl of kidney homogenate using hydrophilic interaction liquid chromatography coupled with nontargeted, positive ion mode MS analysis on an Exactive Plus Orbitrap MS (Thermo Scientific). Polar and non-polar lipids were measured in 10 μl of kidney homogenate using C8 chromatography and nontargeted, positive ion mode MS analysis on a Q Exactive MS (Thermo Scientific). […] Results were analyzed in MetaboAnalyst (Xia et al., Nucleic Acids Res. 40 (Web Server issue): W127-33 (2012)). […]

Data set [4] deals with PGC1α KO mice. The data set can be described thus: Cardiac IRI with pressure volume loops in PGC1α KO mice. Format: in vivo, mouse. Conditions: Nam 400 mg/kg IP, one dose before IRI, two after; 2 weeks after 45 min coronary occlusion. The protocol:
For cardiac IRI surgery, mice were anesthetized, intubated, and placed on a rodent ventilator. After thoracotomy, the left anterior descending artery was identified and ligated with a 7-0 silk suture tied around a specialized 30 gauge catheter. The animal remained under anesthesia and ventilation for 45 minutes of ischemia. Reperfusio was achieved by cutting the suture and re-establishing arterial perfusion. The thoracotomy was then sutured closed and animals recovered with warmed saline injected intraperitoneally.
Pressure volume loops were performed to assess cardiac parameters. Cardiac function was measured in mice using the left ventricle (LV) pressure-volume and echocardiography 2 weeks after cardiac IRI or sham control procedure. After 2% isolfurane inhalant anesthesia, the pressure-volume parameters were measured using a 1.4 French microtip pressure-volume catheter. The catheter was first inserted into the right common carotid artery and then gently advanced into the LV to obtain LV hemodynamic measurements. Data were recorded using a Powerlab system. Beat-by-beat pressure-volume parameters including heart rate, stroke volume, stroke work, and cardiac output were measured and analyzed using Cardiosoft Pro software. […] Two-dimensional guided M-mode images were recorded. […]

Data set [5] has as its system mice with established AKI. The data set can be described thus: Nam rescue of established ischemic AKI (single dose 18 h after reperfusion). Format: in vivo, mouse. Conditions: Nam 400 mg/kg IP x 1, 18 h after onset of reperfusion. The protocol:
as §1, §2, §3

In data set [6] the test system is mice. Briefly: Renal NAD and β-OHB after exogenous Nam in mice. Format: in vivo, mouse. The protocol:
All chemicals were purchased from Sigma-Aldrich unless otherwise noted. Niacinamide was given by intraperitoneal injection of 400 mg/kg/day×4 days in saline, with the final dose an hour prior to IRI surgery. In rescue experiments, the same dose was administered once 18 hours after reperfusion. Indomethacin was given by intraperitoneal injection of 10 mg/kg in 0.1 M sodium carbonate/saline an hour prior to IRI. […] In brief, amino acids, amines, acylcarnitines, nucleotides, and other cationic polar metabolites were measured in 10 μl of kidney homogenate using hydrophilic interaction liquid chromatography coupled with nontargeted, positive ion mode MS analysis on an Exactive Plus Orbitrap MS (Thermo Scientific). Polar and non-polar lipids were measured in 10 μl of kidney homogenate using C8 chromatography and nontargeted, positive ion mode MS analysis on a Q Exactive MS (Thermo Scientific). […] Results were analyzed in MetaboAnalyst (Xia et al., Nucleic Acids Res. 40 (Web Server issue): […]-33 (2012)). PGE2 was measured in mouse kidney tissue by ELISA (Cayman Chemical). β-OHB (Cayman Chemical) and total NAD (BioVision) was measured in mouse kidney tissue by colorimetric assays. […]

The test system of data set [7] is mice. The data set can be described thus: Cisplatin nephrotoxicity model. Format: in vivo, mouse. The settings on record: cisplatin 25 mg/kg IP day 0; Nam 400 mg/kg IP on day −1 and day 0. The text has this:
All chemicals were purchased from Sigma-Aldrich unless otherwise noted.

For data set [8], the system named is healthy 8-12 wk old male mice. The data set can be described thus: Renal blood flow by Doppler ultrasound in healthy mice. Format: in vivo, mouse. The settings on record: Nam 400 mg/kg intraperitoneal x 1; 4 h after injection vs pre-Nam. The text has this: The full method is previously described (Tran et al. J Clin Invest 2011; 121, 4003-4014). Briefly, mice were lightly anesthetized, secured to a heat-controlled stage, and continuously monitored for respiration, ECG, and core temperature. A high frequency, high resolution digital imaging platform with linear array technology and equipped with a high-frequency linear array probe MS550D (22-55 MHz) was used throughout the study (Vevo 2100 Visual Sonics). The flow volume was modeled as a circular cylinder of length equal to the average velocity time integral and diameter measured empirically (n=3 cardiac cycles), then multiplied by the heart rate (bpm), then converted from mm^3/min to ml/min. All measurements and analyses were performed by a single blinded operator (EVK).

In data set [9] the test system is PGC1α^−/− animals. The data set can be described thus: Intracardiac lipids after Nam. Conditions: Nam 400 mg/kg IP. Format: in vivo, mouse.
Data set [10] concerns explanted hearts. The data set can be described thus: NAD in explanted hearts stored in UW Belzer preservation solution. Also noted: species or system mouse. Conditions: 500 μM, 1 mM or 10 mM Nam in ice-cold UW Belzer solution, 3 hours, vs UW Belzer alone. The protocol:
(§4) A, To mimic donor organ harvest, deeply anesthetized mice were flushed intravascularly with ice-cold UW Belzer solution, then placed into ice cold solutions of UW-Belzer with or without 5 μM of P7C3, NAMPT agonist. After 16 hours for the explanted kidneys, organs were analyzed for levels of NAD (pg/μg of protein). B, To mimic donor organ harvest, deeply anesthetized mice were flushed intravascularly with ice-cold UW Belzer solution, then placed into ice cold solutions of UW-Belzer with or without 500 μM, 1 mM or 10 mM Nam. After 3 hours for the explanted hearts, organs were analyzed for levels of NAD (pg/μg of protein). C, NAMPT is the rate-limiting enzyme for the conversion of Nam to NAD via the intermediate NMN (nicotinamide mononucleotide).
(§5) To further expand upon the results from the retrospective cohort of patient study, the conditions of donor organ harvest were mimicked using mice in hopes of improving post-implantation graft performance (FIG. 23). In this experiment, kidney and heart were harvested and Nam or P7C3, a NAMPT agonist, were added to the preservation solution. Upon incubation of kidney with P7C3 in the preservation solution, NAD levels increased as compared to kidney incubated with the UW Belzer solution alone (FIG. 23A). […]

Data set [11] deals with NNMT in cultured renal tubular cells (IMCD3). Conditions: 24 hr exposure to 1-Me-Nam.
Procedure: LC-MS assays were developed for multiplex quantification of Nam, NAD, and β-hydroxybutyrate (β-OHB) from cellular experiments. NAD measurements reflect total NAD^+ plus NADH. Briefly, conditioned medium was extracted with methanol (80% methanol final concentration) spiked with isotopic standards for Nam and β-OHB (CDN Isotopes, Inc.). Precipitated proteins were removed by centrifugation, and supernatants were analyzed directly. For analysis of cell lysates, cells were washed with ice-cold PBS, scraped and lysed on dry ice into methanol containing isotopic standards. After extraction, cell and media supernatants were analyzed by LC-MS/MS using reverse-phase chromatography (NAM and NAD/NADH) or hydrophilic interaction chromatography (β-OHB) coupled to tandem mass spectrometry using an API 5000 triple quadruple mass spectrometer. Analytes were quantified by multiple reaction monitoring using the following m/z transitions: β-OHB 103.1>59, β-OHB IS 105.1>60, NAM 123.3>80.2, NAM IS 127.3>84.2, NAD/NADH 664.2>542.0. Eluting peaks were quantified by area under the curve (AUC).
Mouse intermedullary collecting duct (IMCD3) cells were obtained from ATCC. […] Cells were transfected with siRNA targeting mouse PGC1, HCAR2 or a negative control siRNA (Qiagen) for 24 h. […] Prostaglandin E2 (PGE2) was measured in the conditioned media 24-72 hours after treatment.
In data set [12] the test system is explanted kidneys. Briefly: NAD in explanted kidneys stored in UW Belzer preservation solution. Details: species or system mouse. The settings on record: 5 μM P7C3 in ice-cold UW Belzer solution, 16 hours, vs UW Belzer alone. The protocol:
as §4, §5

As for `CC(O)CC(=O)O` (stereo not drawn) [β-OHB, beta-hydroxybutyrate], in [1] (exogenous β-OHB 5 mM, p<0.0001), the “PGE2 secretion in PGC1α-silenced cells” value is given as “still able to induce PGE2 secretion”.
Take `C[N+]1(C)CCCC(OC(=O)C(O)(c2ccccc2)c2ccccc2)C1` (stereo not shown) [mepenzolate bromide]: the “renal protection (serum creatinine 24 h after IRI)” value in data set [2] is “abolished”.
For the compound `COc1ccc2c(c1)c(CC(=O)O)c(C)n2C(=O)c1ccc(Cl)cc1` [indomethacin], the “renal protection (serum creatinine 24 h after IRI)” value in data set [2] is listed as “abolished”.
Regarding `NC(=O)c1cccnc1` [Nam, niacinamide], the “renal Nam” value in data set [3] (Nam 400 mg/kg IP x 4 d, with and without IRI 24 h before tissue collection, p<0.001) is “increased”. The “post-ischemic fat accumulation (Oil Red O)” value in data set [3] (Nam pretreatment 400 mg/kg IP x 4 d, 24 h after IRI) is given as “normalized”. In data set [3] (PGC1α−/− mice, Nam 400 mg/kg/day IP x 4 d, last dose 1 h before IRI), the “post-ischemic AKI (serum creatinine)” value is recorded as “completely prevented”. In addition, in [4], the “contraction (dP/dt max)” value was “improved” and the “relaxation (dP/dt min)” value is recorded as “improved”. For the same compound, the “renal function (serial serum creatinine) in established AKI” value in data set [5] is on record as “significantly improved; also recorded: attenuated; also recorded: rapidly improved”. Besides, in [6] (4 h after a single IP Nam dose (100-400 mg/kg)), the “renal NAD” value is “dose-dependently increased; also recorded: can increase renal NAD levels”. For the same compound, in data set [6] (Nam 400 mg/kg IP x 4 d, p<0.0001), the “renal β-OHB accumulation relative to normal circulating concentrations” value is reported as “ten-fold”. Moreover, the PGE2 secretion entry in data set [1] (Nam 1 μM for 24 h) is on record as “augmented”. Also, in [7], the “cisplatin-induced AKI (serial serum creatinine)” value was “prevented”. Further, the renal blood flow entry in data set [8] is given as “improved”. For the same compound, in [9], the “intracardiac di- and tri-acylglycerols (DAG, TAG)” value is listed as “decline markedly”; the intracardiac phospholipids result is “largely unaltered”. Besides, the “NAD levels in explanted hearts” value in [10] is listed as “increased; also recorded: can boost NAD levels”.
`C[n+]1cccc(C(N)=O)c1` [1-Me-Nam, 1-methyl-niacinamide]: the “NAD in IMCD3 cells” value in data set [11] was “dose-dependent induction of NAD”.
Consider `OC(CNc1ccccc1)Cn1c2ccc(Br)cc2c2cc(Br)ccc21` (stereo not shown) [P7C3], for which, in data set [12], the “NAD levels in explanted kidneys” value was “increased; also recorded: can boost NAD levels”.
